Laboratory results as given in patent US7786165B2, “Aminophenylpropanoic acid derivative” (Takeda Pharmaceutical Company Limited, priority 2004, dated 2010).
Counter-ions that a name gives are not always drawn.

What follows are compounds tested against T1, human GPR40 (Homo sapiens, UniProt O14842) (assay: Determination of EC50 for human GPR40: intracellular calcium change by FLIPR in CHO cells stably expressing human GPR40). Details: CHO cell line stably expressing human GPR40, changes in intracellular calcium concentration, Fluo3-AM, read-out: EC50 (Receptor Function Modulating Action On GPR40).
T1 construct: expressed in transfected cells; host or cells: CHO cell line stably expressing human GPR40
T1 sequence (O14842 whole entry): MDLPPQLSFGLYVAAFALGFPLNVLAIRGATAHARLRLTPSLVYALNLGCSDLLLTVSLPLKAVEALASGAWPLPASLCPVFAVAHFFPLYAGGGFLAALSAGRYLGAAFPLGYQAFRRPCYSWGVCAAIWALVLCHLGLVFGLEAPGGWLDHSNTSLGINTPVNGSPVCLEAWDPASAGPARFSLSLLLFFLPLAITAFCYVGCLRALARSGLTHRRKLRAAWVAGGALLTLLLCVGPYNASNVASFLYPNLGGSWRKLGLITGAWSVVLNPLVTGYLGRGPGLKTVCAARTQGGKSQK
Type: cell-based
Procedure: Determination of EC50 of the Compound of the Present Invention for Human GPR40
For determination of EC50, CHO cell line that stably expressed human GPR40 was used. Unless otherwise indicated, the CHO cell line was cultured using α-MEM medium (Invitrogen) containing 10% fetal calf serum (Invitrogen).
The cells cultured to nearly confluent were rinsed with PBS (Invitrogen) on the previous day of the assay, peeled off with 0.05% Trypsin-EDTA solution (Invitrogen) and recovered by centrifugation. The number of the obtained cells was counted, and the cells were diluted such that 3×10^5 cells were contained per 1 mL of the medium, dispensed to a black welled 96-well plate (coster) by 100 μL per well and cultured overnight in a CO2 incubator. Various test compounds were added to the CHO cells thus prepared, and the changes in the intracellular calcium concentration were measured using FLIPR (Molecular Device). The below-mentioned pre-treatment was applied to measure changes in the intracellular calcium concentration by FLIPR.
First, an assay buffer for adding a fluorescence dye Fluo3-AM (DOJIN) to the cells, or for washing the cells immediately before FLIPR assay was prepared. To a solution of HBSS (Invitrogen, 1000 mL) to which 1M HEPES (pH 7.4, DOJIN, 20 mL) added (hereinafter HBSS/HEPES solution) was added a solution (10 mL) obtained by dissolving probenecid (Sigma, 710 mg) in 1N NaOH (5 mL), and adding and mixing an HBSS/HEPES solution (5 mL), and the resulting solution was used as an assay buffer. Next, Fluo3-AM (50 μg) was dissolved in dimethylsulfoxide (Wako, 21 μL), and an equivalent amount of 20% pluronic acid (Molecular Probes) was added and mixed. The solution was added to the assay buffer (10.6 mL) supplemented with fetal vovine serum (105 μL) to give a fluorescence dye solution. The medium of the CHO cells inoculated to the black welled 96-well plate on the previous day of assay was removed, the fluorescence dye solution was immediately dispensed by 100 μL per well and the cells were cultured in a CO2 incubator for 1 hr to allow intake of the fluorescence dye by the cells. The cells after the culture were washed with the above-mentioned assay buffer and set on FLIPR. The test compound was diluted with dimethylsulfoxide in advance, dispensed to polypropylene 96-well plate (sample plate) by […], and cryopreserved at −20° C. To the thawed sample plate was added an assay buffer containing 0.015% CHAPS (DOJIN) by 198 μL, and simultaneously set on FLIPR together with the cell plate. After the aforementioned pre-treatment, changes in the intracellular calcium concentration upon addition of various test compounds as measured by FLIPR. Based on the results, a dose-response curve of each test compound was formed and EC50 was calculated.

| Compound | EC50 [nM] |
| --- | --- |
| Cc1cccc(C)c1-c1cccc(CNc2ccc(CCC(=O)O)cc2)c1 [Example 2, 3-(4-{[(2′,6′-dimethylbiphenyl-3-yl)methyl]amino}phenyl)propanoic acid] | < 10 |
| O=C(O)CCc1ccc(NCc2ccc(Cn3c(-c4ccccc4)cc4ccccc43)cc2)cc1 [Example 12, 3-[4-({4-[(2-phenyl-1H-indol-1-yl)methyl]benzyl}amino)phenyl]propanoic acid hydrochloride] | < 100 |
| O=C(O)CCc1ccc(NCc2ccc(CN(CCc3ccccc3)c3nc(-c4ccccc4)cs3)cc2)cc1 [Example 18, 3-{4-[(4-{[(2-phenylethyl)(4-phenyl-1,3-thiazol-2-yl)amino]methyl}benzyl)amino]phenyl}propanoic acid] | < 100 |
| CCCN(Cc1ccc(CNc2ccc(CCC(=O)O)cc2)cc1)c1nc(-c2ccccc2)cs1 [Example 21, 3-{4-[(4-{[(4-phenyl-1,3-thiazol-2-yl)(propyl)amino]methyl}benzyl)amino]phenyl}propanoic acid] | < 100 |
| Cc1ccc2ccccc2c1-c1cccc(CNc2ccc(CCC(=O)O)cc2)c1 [Example 26, 3-(4-{[3-(2-methyl-1-naphthyl)benzyl]amino}phenyl)propanoic acid hydrochloride] | < 100 |
| Cc1cc(OCc2ccccc2)cc(C)c1-c1cccc(CNc2ccc(CCC(=O)O)cc2)c1 [Example 30, 3-[4-({[4′-(benzyloxy)-2′,6′-dimethylbiphenyl-3-yl]methyl}amino)phenyl]propanoic acid hydrochloride] | < 100 |
| Cc1cc(OCC2CC2)cc(C)c1-c1cccc(CNc2ccc(CCC(=O)O)cc2)c1 [Example 33, 3-[4-({[4′-(cyclopropylmethoxy)-2′,6′-dimethylbiphenyl-3-yl]methyl}amino)phenyl]propanoic acid hydrochloride] | < 100 |
| CCOCCOc1cc(C)c(-c2cccc(CNc3ccc(CCC(=O)O)cc3)c2)c(C)c1 [Example 37, 3-[4-({[4′-(2-ethoxyethoxy)-2′,6′-dimethylbiphenyl-3-yl]methyl}amino)phenyl]propanoic acid hydrochloride] | < 100 |
| CCOCCOc1cc(C)c(-c2cccc(CNc3ccc(CCC(=O)O)c(F)c3)c2)c(C)c1 [Example 40, 3-[4-({[4′-(2-ethoxyethoxy)-2′,6′-dimethylbiphenyl-3-yl]methyl}amino)-2-fluorophenyl]propanoic acid hydrochloride] | < 100 |
| O=C(O)CCc1ccc(NCc2ccc(Cn3nc(-c4ccccc4)cc3-c3ccccc3)cc2)cc1 [Example 44, 3-[4-({4-[(3,5-diphenyl-1H-pyrazol-1-yl)methyl]benzyl}amino)phenyl]propanoic acid] | < 100 |
| Cn1ncc(COc2ccc(CNc3ccc(CCC(=O)O)cc3)cc2)c1-c1ccc(F)cc1 [Example 47, 3-{4-[(4-{[5-(4-fluorophenyl)-1-methyl-1H-pyrazol-4-yl]methoxy}benzyl)amino]phenyl}propanoic acid] | < 1000 |
| CCOCCOc1cc(C)c(-c2cccc(CNc3ccc(OCC(=O)O)cc3)c2)c(C)c1 [Example 67, [4-({[4′-(2-ethoxyethoxy)-2′,6′-dimethylbiphenyl-3-yl]methyl}amino)phenoxy]acetic acid] | < 100 |
| CCOCCOc1ccc(-c2cc(CNc3ccc(CCC(=O)O)cc3)ccc2OCc2ccccc2)cc1 [Example 70, 3-[4-({[6-(benzyloxy)-4′-(2-ethoxyethoxy)biphenyl-3-yl]methyl}amino)phenyl]propanoic acid] | < 100 |
| CCOCCOc1cc(C)c(-c2cccc(CNc3ccc4c(c3)OCC4CC(=O)O)c2)c(C)c1 (centres unmarked) [Example 86, [6-({[4′-(2-ethoxyethoxy)-2′,6′-dimethylbiphenyl-3-yl]methyl}amino)-2,3-dihydro-1-benzofuran-3-yl]acetic acid hydrochloride] | < 100 |
| CCN(CC)C(=O)COc1cc(C)c(-c2cccc(CNc3ccc(CCC(=O)O)c(F)c3)c2)c(C)c1 [Example 98, 3-{4-[({4′-[2-(diethylamino)-2-oxoethoxy]-2′,6′-dimethylbiphenyl-3-yl}methyl)amino]-2-fluorophenyl}propanoic acid] | < 100 |
| Cc1cc(OCC(=O)O)cc(C)c1-c1cccc(CNc2ccc(CCC(=O)O)c(F)c2)c1 [Example 100, 3-[4-({[4′-(carboxymethoxy)-2′,6′-dimethylbiphenyl-3-yl]methyl}amino)-2-fluorophenyl]propanoic acid] | < 1000 |
| Cc1cccc(C)c1-c1cc(CNc2ccc(CCC(=O)O)c(F)c2)cc(OCc2ccccc2)c1 [Example 105, 3-[4-({[5-(benzyloxy)-2′,6′-dimethylbiphenyl-3-yl]methyl}amino)-2-fluorophenyl]propanoic acid methanesulfonate] | < 100 |
| CC(C)(C)c1cc(-c2ccccc2)n(Cc2ccc(CNc3ccc(CCC(=O)O)c(F)c3)cc2)n1 [Example 107, 3-[4-({4-[(3-tert-butyl-5-phenyl-1H-pyrazol-1-yl)methyl]benzyl}amino)-2-fluorophenyl]propanoic acid] | < 100 |
| CC(C)(C)c1cc(CCc2ccccc2)n(Cc2ccc(CNc3ccc(CCC(=O)O)c(F)c3)cc2)n1 [Example 113, 3-{4-[(4-{[3-tert-butyl-5-(2-phenylethyl)-1H-pyrazol-1-yl]methyl}benzyl)amino]-2-fluorophenyl}propanoic acid methanesulfonate] | < 100 |
| CCOCCOc1cc(C)c(-c2cccc(CNc3ccc(CC(F)(F)C(=O)O)cc3)c2)c(C)c1 [Example 117, 3-[4-({[4′-(2-ethoxyethoxy)-2′,6′-dimethylbiphenyl-3-yl]methyl}amino)phenyl]-2,2-difluoropropanoic acid] | < 100 |
| CCOCCOc1cc(C)c(-c2cccc(CNc3ccc(CCC(=O)O)cn3)c2)c(C)c1 [Example 120, 3-[6-({[4′-(2-ethoxyethoxy)-2′,6′-dimethylbiphenyl-3-yl]methyl}amino)pyridin-3-yl]propanoic acid methanesulfonate] | < 100 |
| Cc1cc(OS(C)(=O)=O)cc(C)c1-c1cccc(CNc2ccc(CCC(=O)O)c(F)c2)c1 [Example 123, 3-{4-[({2′,6′-dimethyl-4′-[(methylsulfonyl)oxy]biphenyl-3-yl}methyl)amino]-2-fluorophenyl}propanoic acid] | < 100 |
| CCOCCOc1ccc(-c2cc(CNc3ccc(CCC(=O)O)cc3)ccc2OC(C)C)cc1 [Example 127, 3-[4-({[4′-(2-ethoxyethoxy)-6-isopropoxybiphenyl-3-yl]methyl}amino)phenyl]propanoic acid] | < 100 |
| Cc1ccc(COc2ccc(CNc3ccc(CCC(=O)O)c(F)c3)cc2CC(C)C)cc1 [Example 131, 3-[2-fluoro-4-({3-isobutyl-4-[(4-methylbenzyl)oxy]benzyl}amino)phenyl]propanoic acid] | < 100 |
| CCOCCOc1ccc(-c2cc(CNc3ccc(CCC(=O)O)c(F)c3)cc3c2OC(C)(C)C3)cc1 [Example 136, 3-{4-[({7-[4-(2-ethoxyethoxy)phenyl]-2,2-dimethyl-2,3-dihydro-1-benzofuran-5-yl}methyl)amino]-2-fluorophenyl}propanoic acid methanesulfonate] | < 100 |
| CC(C)COc1ccc(CNc2ccc(CCC(=O)O)cc2)cc1CN1c2ccccc2C=CC1(C)C [Example 138, 3-[4-({3-[(2,2-dimethylquinolin-1(2H)-yl)methyl]-4-isobutoxybenzyl}amino)phenyl]propanoic acid] | < 1000 |
| CCS(=O)(=O)CCOc1cc(C)c(-c2cccc(CNc3ccc(CCC(=O)O)c(F)c3)c2)c(C)c1 [Example 146, 3-{4-[({4′-[2-(ethylsulfonyl)ethoxy]-2′,6′-dimethylbiphenyl-3-yl}methyl)amino]-2-fluorophenyl}propanoic acid methanesulfonate] | < 100 |
| Cc1cc(OCCCN2CCCC2=O)cc(C)c1-c1cccc(CNc2ccc(CCC(=O)O)c(F)c2)c1 [Example 149, 3-{4-[({2′,6′-dimethyl-4′-[3-(2-oxopyrrolidin-1-yl)propoxy]biphenyl-3-yl}methyl)amino]-2-fluorophenyl}propanoic acid benzenesulfonate] | < 100 |
| Cc1cc(OCC2(C)COC2)cc(C)c1-c1cccc(CNc2ccc(CCC(=O)O)c(F)c2)c1 [Example 151, 3-{4-[({2′,6′-dimethyl-4′-[(3-methyloxetan-3-yl)methoxy]biphenyl-3-yl}methyl)amino]-2-fluorophenyl}propanoic acid methanesulfonate] | < 100 |
